# Measured values taken from US20240261243A1, “NITRIC OXIDE DONORS, COMPOSITIONS, AND METHODS OF USE” (priority 2020, published 2024).
# Marks after values point to notes of the source that are not given here.
# Test system: P. aeruginosa (PAK)
# Test: Combination MIC/MBC assay, BIOC76 with fixed gallium citrate
# Type: cell-based, Pseudomonas aeruginosa
# Method: Combination MIC/MBC assays are useful when you want to look at only a few concentrations of one compound (Gallium citrate) combined with many concentrations of the second compound (BIOC76).
# This method also allows us to see the change in both the MIC and MBC of a drug when in combination with another drug. Checkerboard assays only allow us to see changes in the MIC's.
# Test articles are added to a 96-well plate so that when a 2× bacterial culture (prepared to 10^6 CFU/ml) is added, the final concentration in all wells was 1×.
# All test articles are prepared at 4×→diluted 1:1 when other TA is added (2×) and diluted 1:1 again to 1× when bacteria are added.
# TA #1 (Gallium citrate) is prepared and added to entire rows of a plate at a single concentration.
# TA #2 (BIOC76) in then prepared and serially diluted in TA #1, so there are 2-fold dilutions of TA #2 combined with a single concentration of TA #1.
# Plates were incubated at 37° C. for 18-24 h.
# The ΔMIC/IBC is used to show the change in the MIC/IBC of BIOC76 when in combination with Gallium citrate (compared to when BIOC76 is used alone).
# ΔMIC/MBC is the fold-decrease in BIOC76 concentration as a result of the combination.
# We concluded BIOC76 and gallium citrate maintain synergistic activity so long as the gallium concentration is at least about 0.005 to about 0.02 mg/ml. In this experimental, we set up MIC/MBC assay and serially diluted BIOC76 in rows with fixed concentrations of gallium citrate. […] The results are shown in FIG. 6, and in the following tables: […]
# [1] = strain N0049 (PAK), with 0.0156 mg/ml GaCi
# [2] = strain N0049 (PAK), with 0.0325 mg/ml GaCi
# [3] = strain N0049 (PAK), with 0.065 mg/ml GaCi
# [4] = strain N0049 (PAK), with 0.125 mg/ml GaCi
# [5] = strain N0049 (PAK), with 0.25 mg/ml GaCi
# [6] = strain N0049 (PAK), with 0.5 mg/ml GaCi
# [7] = strain N0049 (PAK), with 1 mg/ml GaCi
# [8] = strain N0049 (PAK), with 2 mg/ml GaCi
structure (smiles),measurement,setting,value
O=NN(O)N(CCO)CC1OC2OC3C(CN(CCO)N(O)N=O)OC(OC4C(CN(CCO)N(O)N=O)OC(OC5C(CN(CCO)N(O)N=O)OC(OC6C(CN(CCO)N(O)N=O)OC(OC7C(CN(CCO)N(O)N=O)OC(OC8C(CN(CCO)N(O)N=O)OC(OC1C(O)C2O)C(O)C8O)C(O)C7O)C(O)C6O)C(O)C5O)C(O)C4O)C(O)C3O (centres unmarked) [BIOC76],MIC BIOC76,"PAK, alone",2 mg/mL
same,Combo MIC BIOC76,"PAK, with 0.0039 mg/ml GaCi",2 mg/mL
same,Combo MIC BIOC76,"PAK, with 0.0078 mg/ml GaCi",1 mg/mL
same,Combo MIC BIOC76,"PAK, with 0.0156 mg/ml GaCi",0.25 to 0.50 mg/mL
same,Combo MIC BIOC76,"PAK, with 0.0313 mg/ml GaCi",0.125 mg/mL
same,MBC BIOC76 alone,strain N0049 (PAK),4 mg/mL
same,MIC BIOC76 alone,strain N0049 (PAK),2 mg/mL
same,Combo MBC BIOC76,[1],4 mg/mL
same,Δ MBC,[1],0 fold-decrease
same,Δ MIC,[1],4 fold-decrease
same,Combo MBC BIOC76,[2],4 mg/mL
same,Combo MIC BIOC76,[2],125 mg/mL
same,Δ MBC,[2],0 fold-decrease
same,Δ MIC,[2],16 fold-decrease
same,Combo MBC BIOC76,[3],4 mg/mL
same,Combo MIC BIOC76,[3],<0.06 mg/mL
same,Δ MBC,[3],0 fold-decrease
same,Combo MBC BIOC76,[4],4 mg/mL
same,Combo MIC BIOC76,[4],<0.06 mg/mL
same,Δ MBC,[4],0 fold-decrease
same,Combo MBC BIOC76,[5],2 mg/mL
same,Combo MIC BIOC76,[5],<0.06 mg/mL
same,Δ MBC,[5],2 fold-decrease
same,Combo MBC BIOC76,[6],2 mg/mL
same,Combo MIC BIOC76,[6],<0.06 mg/mL
same,Δ MBC,[6],2 fold-decrease
same,Combo MBC BIOC76,[7],4* mg/ml
same,Combo MIC BIOC76,[7],<0.06 mg/mL
same,Δ MBC,[7],0* fold-decrease
same,Combo MBC BIOC76,[8],2 mg/mL
same,Combo MIC BIOC76,[8],<0.06 mg/mL
same,Δ MBC,[8],2 fold-decrease
